For data set [1], the system named is SUM159. The experiment in a line: high-throughput lentiviral shRNA mammosphere formation (MSFE) screen. The following applies: positive control; for mammosphere forming efficiency: increasing concentration, SUM159 cells. Type of data set: cell-based, human.
In data set [2] the test system is BT549. The data set is described as above. Type of data set: cell-based, human. The following applies: Z-score of mammosphere formation vs plate mean, one shRNA per well, 2000 cells/well, 8 biological replicates. How it is done:
(§1) In previously published results, the inventors described a breast cancer stem cell signature that comprised a set of 493 statistically significant, differentially expressed genes that were present in a tumorigenic subpopulation of breast cancer cells (Creighton et al. 2009). The biological confirmation of the significance of these differentially expressed genes was conducted using a shRNA-based gene knockdown approach, correlating the selective knockdown of target genes with mammosphere formation efficacy (MSFE), an in vitro assay for self-renewal. A library of shRNAs which targets the entire human genome (Open Biosystems, Boston, Mass., USA) was used to create a sub-library of shRNAs against the 493 differentially expressed genes in the tumorigenic signature. A total of 1124 shRNAs (˜2-3 shRNA per gene), and appropriate control shRNAs that were encoded in the pGIPZ vector with a green fluorescent protein tag were selected and arrayed on 13×96-well microtiter plates.
(§2) These shRNAs were packaged into lentiviral particles using a second-generation lentiviral packaging system (Addgene, Cambridge, Mass., USA) in 293T cells plated on 96-well plates. The supernatant was then harvested for transduction and expression in a wide range of cell types. Specifically, lentiviruses were collected 3 days after transfection, frozen at −80° C. immediately, and then thawed for transducing two different breast cancer cell lines SUM159PT (American Type Culture Collection; Manassas, Va., USA) and BT549 (ATCC) with 8 biological replicates. Cells were plated in 13×96-well ultra-low attachment plates, at 2000 cells/well, with one shRNA being transduced per well using the Biomek 3000 automated workstation (Beckman Coulter; Brea, Calif. USA), in order to ensure reproducibility and accuracy.
(§3) The lentiviral transduction rate (˜80-90%) in these cell lines was evaluated by fluorescence microscopy using the GFP tag in the pGIPZ vector. MSFE was then assessed in a high throughput screening approach of all 493 genes.
(§4) For shRNA knockdown studies, the mean and the standard deviation from all measurements of each plate for each replicated experiment were estimated. The Z-score was calculated by subtracting the mean of the plate values and dividing this difference by the standard deviation. […] For tumor volume fold-change comparisons, one-way Anova was used to compare different treatment groups. This was followed by Tukey analysis for a pairwise comparison of different treatment groups. For the tumor recurrence studies, events were defined as first appearance of tumor >50 mm^3 after completion of treatment. Time to recurrence was derived by Kaplan-Meier method, with differences compared using the generalized Mann-Whitney-Wilcoxon rank-sum test.
(§5) Previously, a breast cancer stem cell signature was identified comprising 493 statistically significant differentially expressed genes (Creighton et al., 2009). The biological significance of this gene set was confirmed by conducting shRNA-based gene knockdown, and correlating the selective knockdown of target genes using mammosphere-forming efficiency (MSFE), an in vitro assay for self-renewal. As described in the previous examples, a library of shRNAs targeting the entire human genome (Open Biosystems, MA, USA) was used to create a sub-library of shRNAs against the differentially expressed genes in the tumorigenic signature. Using these genes along with appropriate control shRNAs, a total of 1124 shRNAs (˜2-3 shRNA per gene) were tagged with green fluorescent protein, and encoded in pGIPZ vector, and then arrayed on to 13×96-well plates. These shRNAs were packaged into lentiviral particles using a second-generation lentiviral packaging system (Thermo-Fischer, USA) in 293T cells plated in 96-well plates. The supernatant was then harvested for transduction and expression in a wide range of cell types. […]

Data set [3] deals with SUM159. The description is as above. Type of data set: cell-based, human. Conditions: Z-score of mammosphere formation vs plate mean, one shRNA per well, 2000 cells/well, 8 biological replicates. The procedure: as §1, §2, §3, §4, §5
In data set [4] the test system is BCM-2665A human primary tumor. Kind of data set: docetaxel treatment of BCM-2665A xenograft, tumor growth and ALDF staining. Format: in vivo, SCID/Beige mice. The procedure: SCID/Beige mice were inoculated with BCM-2665A human primary tumor tissues. After tumors reached 1 cm^3 in size, the tumor mice were treated with 20 mg/kg docetaxel. […] The residual tumor tissues were collected at the end of the experiment, treated with collagenase, and single cells were stained with Aldefluor® reagent (ALDF). Positive staining by ALDF is one of the characteristic markers for TIC. The percentage of ALDF-positive cells was higher in the docetaxel-treated tumor, than in the control samples.

Data set [5] concerns BT549. The experiment in a line: in vitro MSFE with nanoliposome/silicon particle packaged siRNA. Type of data set: cell-based, human. Conditions: BT549. The procedure:
“Claudin-low”-like human breast cancer cell lines (SUM159 and BT549) were plated in 24-well ultralow attachment plates with mammary epithelial growth medium (MEGM) (5,000 cells/well). Both cell lines were then treated with 1 μg/well/6 wells of silicon particles loaded with DOPC nanoliposomes/siRNA. The primary MSs were allowed to grow for 3 days. MFs were counted on Day 3 with a GelCount colony counter (Oxford Optronix, Oxford, UK). Mammosphere-Forming Efficiency (MSFE) was calculated by dividing the number of MSs by the number of seeded cells. In addition, established MSs were serially passaged by dissociation, and single cells were re-plated on fresh 24-well, ultra-low-attachment plates to form secondary mammospheres, which were counted after 3 days. One-way ANOVA and Tukey tests were performed. A p-value of less than 0.05 was considered significant.
To develop a more clinically relevant model, two of the identified candidates (MLF2 and RPL39L) were compared to Stat3 (positive control), and their siRNA sequences identified within the shRNA vector. These siRNAs were then packaged in nanoliposomes and tested for MSFE using the same protocol as above, except for the addition of packaged siRNA instead of lentiviral shRNA. (N.B. wherein shRNA requires a promoter and needs to be transcribed in order to function, siRNA functions by itself once incorporated into recipient cells).
To develop siRNA nanotherapeutics targeting TIC, studies have been conducted to confirm the essential roles of the candidate TIC genes. Exemplary siRNA oligonucleotides specific for STAT3, MFL2, and RPL39L were formulated into nanoliposomes, which were then loaded into porous silicon MSV particles. For in vitro assay, BT549 and SUM159 cells were incubated with MSV/siRNA, and primary and secondary MSFE was measured. […] For in vivo assessment, SCID/Beige mice were inoculated with SUM159 tumor, and treated with MDS/siRNA delivered by tail vein injection. Cells were then isolated from tumor mice 3 weeks later, and MSFE was measured. […] These studies indicate that 1) MDS/siRNA could successfully be delivered to tumor tissues effectively in vivo, 2) uptake of MDS/siRNA by TIC was efficient, and 3) MFL2 and RPL39L were essential genes for TIC.
The siRNA sequences of two candidate genes RPL39 and MLF2 were packaged in nanoliposomes and the effects on MSFE determined in vitro, as described above, using packaged siRNA instead of lentiviral shRNA.

In the next data set the test system is MDAMB231 lung metastasis. The experiment in a line: in vivo lung metastasis of luciferase-tagged MDAMB231, IVIS imaging. The arrangement: species or system SCID-beige mice. The following applies: siRNA in cationic liposomes twice weekly, week six. The procedure:
3 million cells MDAMB231 cancer cells, stably transfected with luciferase, were injected in the mammary fat pad of SCID-beige mice and were randomized into 3 groups: (1) vehicle+scrambled siRNA, (2) vehicle+MLF2 siRNA, and (3) vehicle+RPL39 siRNA, and treated with siRNA packaged liposomes twice weekly for 6 weeks. The mice were injected with D-luciferin every week for 6 weeks to determine lung metastases using IVIS imaging (Perkin Elmer). The primary tumors were removed by week 5 to continue this study without increasing the primary tumor burden to 10% of body weight.
To assess the effects of RPL39 and MLF2 siRNA on lung metastasis, SCID-Beige mice were injected with luciferase-tagged MDAMB231 cells and treated with siRNA against RPL39 or MLF2 packaged in cationic liposomes, twice weekly simultaneously, and then sacrificed at week six.

For `O=S1(=O)N[C@@]2(CN1CC(F)(F)F)[C@@H]1CC[C@H]2Cc2ccc(/C=C/CN3CCC(C(F)(F)F)CC3)cc2C1` [MRK-003], in the data set with SUM159 [1] (10 μM concentration), the MS formation entry was “dramatically reduced”. Further, the mammosphere forming efficiency result in the data set with SUM159 [1] is recorded as “dose-dependent decrease”; in the data set on SUM159 [1] (listed as notch inhibitor), “inhibiting MS formation”. The “BT 549 Z-score” value is given as −0.731 with BT549 [2] (listed as AA_GSI_pos1_1); −0.688 with BT549 [2] (listed as AA_GSI_pos1_6); −0.519 in the data set with BT549 [2] (listed as AA_GSI_pos1_8); −0.719 in the data set with BT549 [2] (listed as AA_GSI_pos1_10); −0.675 with BT549 [2] (listed as AA_GSI_pos1_11); −0.463 in the data set on BT549 [2] (listed as AA_GSI_pos2_5). In addition, the figures for the “BT 549 Z-score” value in the data set on BT549 [2] (listed as AA_GSI_pos2_8), in the data set with BT549 [2] (listed as AA_GSI_pos2_10) and with BT549 [2] (listed as AA_GSI_pos2_13) were −0.894, −0.685 and −0.397, respectively. The “SUM 159 Z-score” value with SUM159 [3] (listed as AA_GSI_pos1_1) is on record as −2.026; in the data set on SUM159 [3] (listed as AA_GSI_pos1_6), −1.904; in the data set on SUM159 [3] (listed as AA_GSI_pos1_8), −1.850; in the data set with SUM159 [3] (listed as AA_GSI_pos1_10) it was −1.697; in the data set with SUM159 [3] (listed as AA_GSI_pos1_11) it was −2.078; in the data set with SUM159 [3] (listed as AA_GSI_pos2_5) it was −1.923. The “SUM 159 Z-score” value with SUM159 [3] (listed as AA_GSI_pos2_8) is on record as −1.971; in the data set with SUM159 [3] (listed as AA_GSI_pos2_10), −2.139; with SUM159 [3] (listed as AA_GSI_pos2_13), −1.857.
`CC(=O)O[C@@]12CO[C@@H]1C[C@H](O)[C@@]1(C)C(=O)[C@H](O)C3=C(C)[C@@H](OC(=O)[C@H](O)[C@@H](NC(=O)OC(C)(C)C)c4ccccc4)C[C@@](O)([C@@H](OC(=O)c4ccccc4)[C@H]21)C3(C)C` [docetaxel]: in data set [4] (20 mg/kg docetaxel, next 14 days), the tumor growth result was “Significant inhibition”. Also, in data set [4] (residual tumor after 20 mg/kg docetaxel, vs control samples), the “percentage of ALDF-positive cells” value is “higher”.
For “scrambled siRNA: control siRNA; sense SEQ ID NO: 1 ATCTCGCTTGGGCGAGAGTAAG, antisense SEQ ID NO: 17 CTTACTCTCGCCCAAGCGAGAG (listed as DNA, chemistry not given here) [reference compound]”, the “MSFE, primary MSs” value in the data set on BT549 [5] (1 μg/well silicon particles loaded with DOPC nanoliposomes/siRNA, counted Day 3) came out at 2.4%. Moreover, the “MSFE, secondary MSs” value in the data set with BT549 [5] (silicon particles loaded with DOPC nanoliposomes/siRNA, re-plated, counted after 3 days) came to 1%. For the same compound, the “lung metastasis (animals with metastasis / animals), IVIS imaging” value in the data set on MDAMB231 lung metastasis is 12/12.

(Values after patent US9546367B2, “siRNA compositions and methods for inhibiting gene expression in tumor initiating cells of breast cancer” (priority 2011, dated 2017).)
